The record followed here is US5565479A, “Condensed thiazole derivative, production process thereof and pharmaceutical composition thereof” (Yamanouchi Pharmaceutical Co., Ltd., priority 1992, dated 1996).

Counter-ions that a name gives are not always drawn.

Data set [1] deals with T1, 5-HT3 receptor (Cavia porcellus, UniProt O70212).
T1 construct: Distal colons were excised from male Hartley guinea pigs; from tissue; host or cells: distal colon strips of male Hartley guinea pigs
T1 sequence (O70212 20-490): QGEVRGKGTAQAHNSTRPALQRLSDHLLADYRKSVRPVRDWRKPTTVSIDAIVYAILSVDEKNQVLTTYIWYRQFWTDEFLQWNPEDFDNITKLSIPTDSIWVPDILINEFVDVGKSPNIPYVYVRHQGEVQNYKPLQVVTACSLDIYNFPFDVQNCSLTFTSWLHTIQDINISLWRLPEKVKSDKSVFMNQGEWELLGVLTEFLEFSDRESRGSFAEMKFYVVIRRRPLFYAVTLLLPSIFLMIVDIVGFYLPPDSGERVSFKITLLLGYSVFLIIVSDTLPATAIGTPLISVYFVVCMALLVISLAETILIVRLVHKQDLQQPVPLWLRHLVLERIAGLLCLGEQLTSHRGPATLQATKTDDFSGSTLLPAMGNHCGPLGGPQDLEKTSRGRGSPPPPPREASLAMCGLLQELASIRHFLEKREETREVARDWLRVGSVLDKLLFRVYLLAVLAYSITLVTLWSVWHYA
Put plainly: 5-HT3 receptor agonistic activity: contractile response of isolated guinea pig distal colon strips. The format is cell-based. To be noted: read-out: Max. response. The source says: Distal colons were excised from male Hartley guinea pigs (500 to 800 g) to prepare strips of about 20 mm.
Each strip was longitudinally suspended in a Magnus tube, and contractile response was isometrically measured.

Data set [2] relates to 5-HT3 receptor. The data set is described as follows: Receptor binding experiment.
The test system of data set [3] is ICR male mice. The data set is described as follows: Toxicity after i.v. administration to ICR male mice. The format is in vivo. To be noted: 100 mg/kg i.v., 8 to 9 weeks of age, n=5 to 6. The source says:
Being low in toxicity, the compounds of the present invention are suitable for use as medicines.

In the case of `c1ccc2c(c1)Cc1sc(Cc3c[nH]cn3)nc1-2` [Example 1, 2-(4-imidazolylmethyl)-8H-indeno[1,2-d]thiazole], the Emax in data set [1] was found to be 89.9%. In addition, in data set [2], the “affinity for the 5-HT3 receptor” value was “high affinity”. Moreover, the side effects entry in data set [3] is recorded as “do not cause serious grave side effects”.

On to `O=C(O)/C=C/C(=O)O.c1ccc2c(c1)CCc1sc(Cc3c[nH]cn3)nc1-2` [Example 3, 2-(4-Imidazolylmethyl)-4,5-dihydronaphtho[1,2-d]thiazole fumarate], for which the Emax in data set [1] was determined as 80.3%. The side effects entry in data set [3] is “do not cause serious grave side effects”.

`c1ccc2c(c1)CCCc1sc(Cc3c[nH]cn3)nc1-2` [Example 4, 2-(4-Imidazolylmethyl)-5,6-dihydro-4H-benzo[6,7]-cyclohepto[1,2-d]thiazole fumarate]: the Emax in data set [1] was determined as 50%.

For `c1ccc2c(c1)Cc1sc(Cn3ccnc3)nc1-2` [Example 10, 2-(1-Imidazolylmethyl)-8H-indeno[1,2-d]thiazole fumarate], in data set [1], the Emax came out at 60.9%.

On to `Cn1cncc1Cc1nc2c(s1)Cc1ccccc1-2` [Example 15, 2-[(1-Methyl-5-imidazolyl)methyl]-8H-indeno[1,2-d]thiazole], for which, in data set [1], the Emax was found to be 42.6%.

In the case of `c1ccc2c(c1)ccc1sc(Cn3ccnc3)nc12` [Example 30, 2-(1-imidazolylmethyl)naphtho[1,2-d]thiazole], the Emax in data set [1] worked out at 78.2%.
